Measured values reported in patent US4008220A, “Penicillins” (Sumitomo Chemical Company, Limited, priority 1972, dated 1977).
Values after ≈ are worked out from the molar mass of the structure shown.

Legend:
Proteus vulgaris HX19 = experiment: Minimal inhibitory concentration by agar dilution method; format: cell-based
[1] = tested on: Staphylococcus aureus 209P; experiment: as above; format: cell-based
[2] = tested on: Klebsiella pneumoniae 602; experiment: as above; format: cell-based
Escherichia coli NIHJ = experiment: as above; format: cell-based
[3] = tested on: Pseudomonas aeruginosa 104; experiment: as above; format: cell-based
Proteus mirabilis GN2425 = experiment: as above; format: cell-based
Pseudomonas = conditions: in words; cited from earlier work
[4] = tested on: various gram-positive and gram-negative bacteria; conditions: in words; cited from earlier work

SMILES | MIC (Proteus vulgaris HX19) | MIC [1] | MIC [2] | MIC (Escherichia coli NIHJ) | MIC [3] | MIC (Proteus mirabilis GN2425) | antimicrobial activity against Pseudomonas (Pseudomonas) | growth inhibition / antimicrobial activity against gram-positive and gram-negative bacteria [4]
CC1(C)S[C@@H]2[C@H](NC(=O)C(NC(=O)c3ccnnc3O)c3ccsc3)C(=O)N2[C@H]1C(=O)O (some centres unmarked) [Example 15] | 0.05 µg/mL (≈ 0.105 µM) | 0.39 µg/mL (≈ 0.817 µM) | 12.5 µg/mL (≈ 26.2 µM) | 12.5 µg/mL (≈ 26.2 µM) | 3.13 µg/mL (≈ 6.55 µM) | 6.25 µg/mL (≈ 13.1 µM) |  | 
CC1(C)S[C@@H]2C(NC(=O)C(N)c3ccccc3)C(=O)N2[C@H]1C(=O)O (stereo partly drawn) [Ampicillin, 6-(α-aminophenylacetamido)-penicillanic acid] |  |  |  |  |  |  | does not exert any appreciable antimicrobial activity against Pseudomonas | inhibits the growth of various gram-positive and gram-negativebacteria
CC(C)CC(NC(=O)c1ccnnc1O)C(=O)N[C@@H]1C(=O)N2[C@@H]1SC(C)(C)[C@@H]2C(=O)O (some centres unmarked) [Example 13] | 0.39 µg/mL (≈ 0.864 µM) | 0.39 µg/mL (≈ 0.864 µM) | 25 µg/mL (≈ 55.4 µM) | 12.5 µg/mL (≈ 27.7 µM) | 12.5 µg/mL (≈ 27.7 µM) | 25 µg/mL (≈ 55.4 µM) |  | 
CCOC(=O)Oc1c(C(=O)N[C@@H](C(=O)N[C@@H]2C(=O)N3[C@@H]2SC(C)(C)[C@@H]3C(=O)O)c2ccccc2)cnc2c1CCC2 [Example 1, D-α-(4-ethoxycarbonyloxy-2,3-cyclopentenopyridine-5-carboxamido)-benzylpenicillin] | 0.05 µg/mL (≈ 0.0858 µM) | 0.39 µg/mL (≈ 0.669 µM) | 6.25 µg/mL (≈ 10.7 µM) | 12.5 µg/mL (≈ 21.5 µM) | 6.25 µg/mL (≈ 10.7 µM) | 3.13 µg/mL (≈ 5.37 µM) |  | 
CC1(C)S[C@@H]2[C@H](NC(=O)[C@H](NC(=O)c3cnccc3O)C3=CCC=CC3)C(=O)N2[C@H]1C(=O)O [Example 11, D-α-(4-hydroxypyridine-3-carboxamido)-1,4-cyclohexadienylmethylpenicillin] | 0.2 µg/mL (≈ 0.423 µM) | 0.39 µg/mL (≈ 0.825 µM) | 12.5 µg/mL (≈ 26.5 µM) | 25 µg/mL (≈ 52.9 µM) | 6.25 µg/mL (≈ 13.2 µM) | 12.5 µg/mL (≈ 26.5 µM) |  | 
CC1(C)S[C@@H]2[C@H](NC(=O)C(NC(=O)c3cnccc3O)c3cnsc3)C(=O)N2[C@H]1C(=O)O (some centres unmarked) [Example 16] | 0.2 µg/mL (≈ 0.419 µM) | 0.78 µg/mL (≈ 1.63 µM) | 25 µg/mL (≈ 52.4 µM) | 25 µg/mL (≈ 52.4 µM) | 6.25 µg/mL (≈ 13.1 µM) | 12.5 µg/mL (≈ 26.2 µM) |  | 
CC1(C)S[C@@H]2[C@H](NC(=O)C(NC(=O)c3cccnc3)c3ccccc3)C(=O)N2[C@H]1C(=O)O (some centres unmarked) [II, reference compound] | 0.78 µg/mL (≈ 1.72 µM) | 0.78 µg/mL (≈ 1.72 µM) | 100 µg/mL (≈ 220 µM) | 100 µg/mL (≈ 220 µM) | 50 µg/mL (≈ 110 µM) | 100 µg/mL (≈ 220 µM) |  | 
CC1(C)S[C@@H]2[C@H](NC(=O)C(NC(=O)c3cnc4c(c3O)CCCCC4)c3ccccc3)C(=O)N2[C@H]1C(=O)O (some centres unmarked) [Example 20] | 0.78 µg/mL (≈ 1.45 µM) | 0.78 µg/mL (≈ 1.45 µM) | 3.13 µg/mL (≈ 5.81 µM) | 25 µg/mL (≈ 46.4 µM) | 12.5 µg/mL (≈ 23.2 µM) | 6.25 µg/mL (≈ 11.6 µM) |  | 
CC(C)(C)C(=O)Oc1c(C(=O)N[C@@H](C(=O)N[C@@H]2C(=O)N3[C@@H]2SC(C)(C)[C@@H]3C(=O)O)c2ccccc2)cnc2c1CCCC2 [Example 5, D-α-(2,3-cyclohexeno-4-pivaloyloxypyridine-5-carboxamido)-benzylpenicillin] | 0.39 µg/mL (≈ 0.641 µM) | 0.78 µg/mL (≈ 1.28 µM) | 6.25 µg/mL (≈ 10.3 µM) | 12.5 µg/mL (≈ 20.5 µM) | 12.5 µg/mL (≈ 20.5 µM) | 6.25 µg/mL (≈ 10.3 µM) |  | 
CC1(C)S[C@@H]2[C@H](NC(=O)C(NC(=O)c3ccnnc3O)c3cnsc3)C(=O)N2[C@H]1C(=O)O (some centres unmarked) [Example 19] | 0.05 µg/mL (≈ 0.104 µM) | 0.39 µg/mL (≈ 0.815 µM) | 25 µg/mL (≈ 52.2 µM) | 12.5 µg/mL (≈ 26.1 µM) | 6.25 µg/mL (≈ 13.1 µM) | 6.25 µg/mL (≈ 13.1 µM) |  | 
Cc1cc(C(=O)NC(C(=O)N[C@@H]2C(=O)N3[C@@H]2SC(C)(C)[C@@H]3C(=O)O)c2ccccc2)c(O)nn1 (some centres unmarked) [Example 24] | 0.39 µg/mL (≈ 0.803 µM) | 0.39 µg/mL (≈ 0.803 µM) | 25 µg/mL (≈ 51.5 µM) | 12.5 µg/mL (≈ 25.7 µM) | 3.13 µg/mL (≈ 6.45 µM) | 50 µg/mL (≈ 103 µM) |  | 
Cc1ncc(C(=O)NC(C(=O)N[C@@H]2C(=O)N3[C@@H]2SC(C)(C)[C@@H]3C(=O)O)c2ccccc2)c(O)c1C(C)O (some centres unmarked) [Example 22] | 0.39 µg/mL (≈ 0.738 µM) | 0.78 µg/mL (≈ 1.48 µM) | 12.5 µg/mL (≈ 23.6 µM) | 25 µg/mL (≈ 47.3 µM) | 6.25 µg/mL (≈ 11.8 µM) | 12.5 µg/mL (≈ 23.6 µM) |  | 
CC1(C)S[C@@H]2[C@H](NC(=O)[C@H](NC(=O)c3cnc4c(c3O)CCCC4)c3ccccc3)C(=O)N2[C@H]1C(=O)O [Example 3, D-α-(4-hydroxy-2,3-cyclohexenopyridine-5-carboxamido)-benzylpenicillin] | 0.39 µg/mL (≈ 0.743 µM) |  |  |  | 12.5 µg/mL (≈ 23.8 µM) | 6.25 µg/mL (≈ 11.9 µM) |  | 
